Like-named read-outs stand apart in the source and are kept apart here.
Columns and labels:
SOS1 = target: T1, SOS1 (Homo sapiens, UniProt Q07889); test: SOS-catalyzed nucleotide exchange assay (HTRF, SOS1-mediated GTP loading of KRAS G12D); assay type: biochemical
T1 construct: HIS-SOS1cat (160 nM; Cytoskeleton, US); His (N); purchased Cytoskeleton
T1 sequence (Q07889 564-1049 limits assumed): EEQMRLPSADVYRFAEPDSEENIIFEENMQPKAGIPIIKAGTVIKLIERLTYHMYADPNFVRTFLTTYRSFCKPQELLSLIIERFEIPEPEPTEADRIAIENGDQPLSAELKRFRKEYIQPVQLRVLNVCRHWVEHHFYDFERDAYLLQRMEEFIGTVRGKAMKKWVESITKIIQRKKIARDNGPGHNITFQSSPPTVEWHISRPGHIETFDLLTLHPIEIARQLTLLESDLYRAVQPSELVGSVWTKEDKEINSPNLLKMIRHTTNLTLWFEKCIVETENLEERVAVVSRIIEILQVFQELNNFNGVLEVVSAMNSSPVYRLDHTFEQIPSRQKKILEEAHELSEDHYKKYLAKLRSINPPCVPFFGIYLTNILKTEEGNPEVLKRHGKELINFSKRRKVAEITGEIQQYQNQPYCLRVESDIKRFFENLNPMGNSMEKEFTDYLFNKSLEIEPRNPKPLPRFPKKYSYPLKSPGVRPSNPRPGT

KRAS G12C::SOS1 = target: T2, KRAS G12C::SOS1 (Homo sapiens, UniProt Q07889); test: KRAS G12C::SOS1 protein-protein interaction (PPI) inhibition assay (HTRF); assay type: binding
T2 construct: purchased CISBIO 64KRASG12PEH
T2 sequence (Q07889 1-1333): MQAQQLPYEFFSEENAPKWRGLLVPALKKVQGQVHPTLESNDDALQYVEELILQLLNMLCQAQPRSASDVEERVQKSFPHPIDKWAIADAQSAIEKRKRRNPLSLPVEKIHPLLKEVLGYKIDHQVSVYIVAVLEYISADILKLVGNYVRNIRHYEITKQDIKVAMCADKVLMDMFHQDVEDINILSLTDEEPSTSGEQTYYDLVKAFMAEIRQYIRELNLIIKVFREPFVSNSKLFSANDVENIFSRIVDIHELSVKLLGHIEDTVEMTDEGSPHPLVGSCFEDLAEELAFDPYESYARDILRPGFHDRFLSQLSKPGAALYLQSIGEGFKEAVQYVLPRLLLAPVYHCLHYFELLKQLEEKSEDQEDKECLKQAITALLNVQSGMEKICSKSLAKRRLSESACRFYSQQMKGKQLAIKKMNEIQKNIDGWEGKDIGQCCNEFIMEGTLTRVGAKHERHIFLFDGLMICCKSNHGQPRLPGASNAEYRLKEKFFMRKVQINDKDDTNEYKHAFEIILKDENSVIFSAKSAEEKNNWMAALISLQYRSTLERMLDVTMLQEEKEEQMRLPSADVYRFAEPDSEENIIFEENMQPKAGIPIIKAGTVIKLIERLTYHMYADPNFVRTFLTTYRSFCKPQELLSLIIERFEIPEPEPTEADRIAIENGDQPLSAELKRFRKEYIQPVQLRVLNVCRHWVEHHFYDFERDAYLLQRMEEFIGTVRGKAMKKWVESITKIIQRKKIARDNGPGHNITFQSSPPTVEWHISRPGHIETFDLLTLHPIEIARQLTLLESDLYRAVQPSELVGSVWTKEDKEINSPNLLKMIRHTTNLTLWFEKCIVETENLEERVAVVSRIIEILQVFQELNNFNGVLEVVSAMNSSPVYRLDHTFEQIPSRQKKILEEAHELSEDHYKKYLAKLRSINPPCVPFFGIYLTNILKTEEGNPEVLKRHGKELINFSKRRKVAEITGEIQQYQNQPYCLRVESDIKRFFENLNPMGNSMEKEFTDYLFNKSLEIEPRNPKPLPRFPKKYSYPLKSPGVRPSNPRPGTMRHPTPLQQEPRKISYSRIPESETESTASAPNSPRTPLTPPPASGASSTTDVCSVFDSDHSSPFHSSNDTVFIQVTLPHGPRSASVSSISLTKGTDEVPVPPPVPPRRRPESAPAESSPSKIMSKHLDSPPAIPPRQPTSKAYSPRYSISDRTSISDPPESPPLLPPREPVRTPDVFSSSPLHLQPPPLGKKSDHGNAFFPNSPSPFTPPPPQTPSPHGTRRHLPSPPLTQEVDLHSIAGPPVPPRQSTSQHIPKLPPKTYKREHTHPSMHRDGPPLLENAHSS
Method in brief: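 Compounds, at eight 3-fold dilutions from 3 µM, were mixed with GTP-loaded Tag1-KRAS G12C, Tag2-SOS1 and a terbium-cryptate donor plus XL665 acceptor antibody pair. After 2 h at room temperature, time-resolved FRET reported the KRAS–SOS1 interaction.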

[1] = GST-KRAS G12D, HIS-SOS1cat, compound 128 pM to 10 µM, read-out: SOS-catalyzed nucleotide exchange assay
[2] = 8 concentrations from 3 µM, three replicates, read-out: KRAS G12C::SOS1 PPI

Row | SMILES | IC50 (SOS1; [1]) | IC50 (KRAS G12C::SOS1; [2]) | IC50 (SOS1) | IC50 (KRAS G12C::SOS1)
1 | [2H]C([2H])([2H])[C@@H](NC(=O)c1ccc(=O)n(-c2cncc(-c3cnnn3C3CC3)c2)n1)c1cccc(C(F)(F)CO)c1F [Example 1-60, 1-[5-(1-cyclopropyl-1H-1,2,3-triazol-5-yl)-3-pyridyl]-6-oxo-N-[(1R)-2,2,2-trideuterio-1-[3-(1,1-difluoro-2-hydroxy-ethyl)-2-fluoro-phenyl]ethyl]pyridazine-3-carboxamide] | < 0.05 µM | < 0.05 µM |  | 
2 | C[C@@H](NC(=O)c1cc(C2CCCCC2)c(=O)n(-c2cncc(-c3cnnn3C)c2)n1)c1cccc(C(F)(F)F)c1F [Example 1-65, N-{(R)-1-[2-fluoro-3-(trifluoromethyl)phenyl]ethyl}-5-cyclohexyl-1-[5-(1-methyl-1H-1,2,3-triazol-5-yl)-3-pyridyl]-6-oxo-1,6-dihydropyridazine-3-carboxamide] | > 0.15 µM | 0.05 to 0.15 µM |  | 
3 | CCc1cc(C(=O)N[C@H](C)c2cccc(C(F)(F)F)c2F)nn(-c2cncc(-c3cnnn3C)c2)c1=O [Example 1-66, N-{(R)-1-[2-fluoro-3-(trifluoromethyl)phenyl]ethyl}-5-ethyl-1-[5-(1-methyl-1H-1,2,3-triazol-5-yl)-3-pyridyl]-6-oxo-1,6-dihydropyridazine-3-carboxamide] | 0.05 to 0.15 µM | < 0.05 µM |  | 
4 | C[C@@H](NC(=O)c1ccc(=O)n(-c2cncc(-c3cnnn3C3CC3)c2)c1)c1cccc(C(F)(F)F)c1F [Example 1-68, 1-[5-(1-cyclopropyl-1H-1,2,3-triazol-5-yl)-3-pyridyl]-N-[(1R)-1-[2-fluoro-3-(trifluoromethyl)phenyl]ethyl]-2-oxo-2H-[1,3'-bipyridine]-5-carboxamide] | < 0.05 µM | < 0.05 µM |  | 
5 | C[C@@H](NC(=O)c1cc(C(F)(F)F)c(=O)n(-c2cncc(-c3cnnn3C)c2)n1)c1cccc(C(F)(F)F)c1F [Example 1-69, N-[(R)-1-[2-fluoro-3-(trifluoromethyl)phenyl]ethyl]-1-[5-(1-methyl-1H-1,2,3-triazol-5-yl)-3-pyridyl]-6-oxo-5-(trifluoromethyl)-pyridazine-3-carboxamide] | 0.05 to 0.15 µM | < 0.05 µM |  | 
6 | C[C@@H](NC(=O)c1cc(C#N)c(=O)n(-c2cncc(-c3cnnn3C)c2)n1)c1cccc(C(F)(F)CO)c1F [Example 3, 5-cyano-N-[(1R)-1-[3-(1,1-difluoro-2-hydroxy-ethyl)-2-fluorophenyl]ethyl]-1-[5-(3-methyltriazol-4-yl)-3-pyridyl]-6-oxo-pyridazine-3-carboxamide] |  |  | > 0.15 µM | > 0.15 µM
7 | C[C@@H](NC(=O)c1ccc(=O)n(-c2cnnc(-c3cnnn3C)c2)n1)c1cccc(C(F)F)c1F [Example 5, N-[(1R)-1-[2-fluoro-3-(difluoromethyl)phenyl]ethyl]-1-[6-(3-methyltriazol-4-yl)pyridazin-4-yl]-6-oxo-pyridazine-3-carboxamide] |  |  | > 0.15 µM | > 0.15 µM
8 | C[C@@H](NC(=O)c1ccc(=O)n(-c2cc(-c3cnnn3C3CC3)cnc2F)n1)c1cccc(C(F)(F)CO)c1F [Example 6-8] |  |  | < 0.05 µM | < 0.05 µM
9 | Cc1cc(C(=O)N[C@H](C)c2cccc(C(F)(F)COS(=O)(=O)c3ccccn3)c2F)nn(-c2cncc(-c3cnnn3C)c2)c1=O [Example 8, N-[(R)-1-{3-[1,1-difluoro-2-(2-pyridylsulfonyloxy)ethyl]-2-fluorophenyl}ethyl]-5-methyl-1-[5-(1-methyl-1H-1,2,3-triazol-5-yl)-3-pyridyl]-6-oxo-1,6-dihydropyridazine-3-carboxamide] | < 0.05 µM | < 0.05 µM |  | 
10 | C[C@@H](NC(=O)c1ccc(=O)n(-c2cncc(-c3cnnn3CCO)c2)n1)c1cccc(C(F)(F)F)c1F [Example 11, N-{(R)-1-[2-fluoro-3-(trifluoromethyl)phenyl]ethyl}-1-{5-[1-(2-hydroxyethyl)-1H-1,2,3-triazol-5-yl]-3-pyridyl}-6-oxo-1,6-dihydropyridazine-3-carboxamide] | < 0.05 µM | 0.05 to 0.15 µM |  | 
11 | C[C@@H](NC(=O)c1cc(Cl)c(=O)n(-c2cncc(-c3c(Cl)nnn3C)c2)n1)c1cccc(C(F)F)c1F [Example 12, N-{(R)-1-[3-(difluoromethyl)-2-fluorophenyl]ethyl}-5-chloro-1-[5-(4-chloro-1-methyl-1H-1,2,3-triazol-5-yl)-3-pyridyl]-6-oxo-1,6-dihydropyridazine-3-carboxamide] | 0.05 to 0.15 µM | > 0.15 µM |  | 

Now from value to compound, other results behind:

Row | IC50 (SOS1; [1]) | IC50 (KRAS G12C::SOS1; [2]) | SMILES | IC50 (SOS1) | IC50 (KRAS G12C::SOS1)
12 | < 0.05 µM | < 0.05 µM | Cc1c([C@@H](C)NC(=O)c2ccc(=O)n(-c3cncc(-c4cnnn4C)c3)n2)cc(N)cc1C(F)(F)F [Example 2-2, N-[(1R)-1-[5-amino-2-methyl-3-(trifluoromethyl)phenyl]ethyl]-1-[5-(3-methyltriazol-4-yl)-3-pyridyl]-6-oxo-pyridazine-3-carboxamide] |  | 
13 | 0.05 to 0.15 µM | > 0.15 µM | C[C@@H](NC(=O)c1cc(C#N)c(=O)n(-c2cncc(-c3cnnn3C)c2)n1)c1cccc(C(F)F)c1F [Example 3-1, 5-cyano-N-[(1R)-1-[3-(difluoromethyl)-2-fluorophenyl]ethyl]-1-[5-(1-methyl-1H-1,2,3-triazol-5-yl)pyridin-3-yl]-6-oxo-1,6-dihydropyridazine-3-carboxamide] |  | 
14 | < 0.05 µM | < 0.05 µM | C[C@@H](NC(=O)c1cc(C#N)c(=O)n(-c2cc(-c3cnnn3C)cnc2F)n1)c1cccc(C(F)(F)CO)c1F [Example 3-3] |  | 
15 | 0.05 to 0.15 µM | 0.05 to 0.15 µM | C[C@@H](NC(=O)c1cc(C#N)c(=O)n(-c2cc(-c3cnnn3C3CC3)cnc2F)n1)c1cccc(C(F)(F)F)c1F [Example 3-4, 5-cyano-N-[(1R)-1-[2-fluoro-3-(trifluoromethyl)phenyl]ethyl]-1-(5-(1-cyclopropyl-1H-1,2,3-triazol-5-yl)-2-fluoropyridin-3-yl)-6-oxo-1,6-dihydropyridazine-3-carboxamide] |  | 
16 | 0.05 to 0.15 µM | 0.05 to 0.15 µM | [2H]C([2H])([2H])n1nncc1-c1cnc(F)c(-n2nc(C(=O)N[C@H](C)c3cccc(C(F)(F)F)c3F)cc(C#N)c2=O)c1 [Example 3-5, 5-cyano-N-[(1R)-1-(2-fluoro-3-(trifluoromethyl)phenyl)ethyl]-1-[2-fluoro-5-(1-(methyl-trideuterio)-1H-1,2,3-triazol-5-yl)pyridin-3-yl]-6-oxo-1,6-dihydropyridazine-3-carboxamide] |  | 
17 | 0.05 to 0.15 µM | > 0.15 µM | C[C@@H](NC(=O)c1ccc(=O)n(-c2cnc(F)c(-c3cnnn3C)c2)n1)c1cccc(C(F)F)c1F [Example 6-1, N-{(1R)-1-(3-(difluoromethyl)-2-fluorophenyl)ethyl}-1-(6-fluoro-5-(1-methyl-1H-1,2,3-triazol-5-yl)pyridin-3-yl)-6-oxo-1,6-dihydropyridazine-3-carboxamide] |  | 
18 | < 0.05 µM | < 0.05 µM | C[C@@H](NC(=O)c1ccc(=O)n(-c2cncc(-c3cnnn3[C@@H]3CCNC3)c2)n1)c1cccc(C(F)(F)F)c1F [Example 6-9, N-{(R)-1-[2-fluoro-3-(trifluoromethyl)phenyl]ethyl}-6-oxo-1-(5-(1-((R)-pyrrolidin-3-yl)-1H-1,2,3-triazol-5-yl)pyridin-3-yl)-1,6-dihydropyridazine-3-carboxamide] |  | 
